Measured values published in patent publication EP0476645B1, “Calcium uptake inhibitors” (MERRELL DOW PHARMACEUTICALS INC., priority 1990, dated 1992).
Where two headings read alike, the source gives them in different places.

Columns and labels:
Rat PMNL = test: Myeloperoxidase (MPO) release from stimulated PMNL; assay type: cell-based; conditions: for inhibition at 1 µM / inhibition at 3 µM / inhibition at 10 µM / inhibition at 30 µM / inhibition at 100 µM: Rattus norvegicus, PMNL, inhibition of MPO release; for inhibition at 1 µM: 1 µM compound; for inhibition at 3 µM: 3 µM compound; for inhibition at 10 µM: 10 µM compound; for inhibition at 30 µM: 30 µM compound; for inhibition at 100 µM: 100 µM compound; for inhibition of release of myeloperoxidase: fMLP with cytochalasin B, opsonized zymosan or ionomycin stimulus, result in words
Protocol: Rat PMNL were obtained from exudates resulting from peritoneal injection of 6 mL of 8% sodium caseinate. Eighteen hours after injection rats were killed by carbon dioxide inhalation and the peritoneal cavity lavaged with Hank's balanced salt solution (HBSS). After concentration of the PMNL by centrifugation, contaminating erythrocytes were removed by hypotonic lysis. The PMNL were then washed twice by centrifugation (400 x g for 10 minutes) and resuspended in HBSS. Cell viability was greater than 90% by Trypan Blue exclusion and greater than 90% of the cells were PMNL by Wright-Giemsa stain.
MPO release was determined using the MPO catalyzed oxidation of o-dianisidine. The experiments were carried out in 96-well microtiter plates (Webster and Henson, 1978). In each well, 50 microliter (µl) aliquots of a PMNL suspension (2 x 10⁷ cells/mL in HBSS) were incubated with 50 µl of HBSS containing vehicle (0.3% DMSO) or inhibitor for 30 minutes at 37°C. The final DMSO concentration never exceeded 0.3% and was constant throughout each experiment. To activate the PMNL, 50 µl of one of the following were added for 30 minutes at 37°C: N-formyl-Met-Leu-Phe (fMLP; 0.1 µM); phorbol myristate acetate (PMA, 200 ng/mL); or rat serum opsonized zymosan (OZ; 2.6 mg/mL, prepared by the method of Ward et al., 1983). The stimuli were added in 50 µl HBSS which also contained the compounds or vehicle, as appropriate, to avoid changing the inhibitor concentration. Cell activation was terminated by centrifugation of the plates at 600 x g for 5 minutes at 22°C. Aliquots (100 µl) of supernatant were removed from each well and transferred to a 96-well flatbottomed microtiter plate for the MPO assay. To each aliquot of supernatant was added 100 µl of a freshly prepared solution containing 50 µl of 0.2 M sodium phosphate buffer (pH 6.2), 25 µl of 3.9 mM o-dianisidine and 25 µl of 0.015 M hydrogen peroxide. Blanks were obtained using the same solution without hydrogen peroxide. The plates were mixed and then incubated at room temperature in the dark for about 15 minutes. Absorbances of the samples were measured at 450 nm.
Rat PMNL were isolated in HBSS containing Ca⁺². As summarized in the figures below, fMLP stimulation of rat PMNL in the presence of cytochalasin B or with opsonized zymosan or with ionomycin results in the release of myeloperoxidase (fMLP/MPO, OZ/MPO, and ION/MPO; columns 2, 4, and 6 respectively).

[1] = tested on: Mustard Oil-Induced Mouse Ear Edema; test: Mustard oil-induced mouse ear edema; assay type: in vivo, Charles River male CD-1 mice; conditions: ear weight increase after 30 minutes
Protocol: Charles River male CD-1 mice weighing 30-60 grams were divided into randomized groups. They were dosed i.p. for 30 minutes prior or orally 1 hour prior to application of 20 µl of mustard oil (10% isothiocyanate in acetone) to the right ear. After 30 minutes the mice were sacrificed and an 8 millimeter diameter circular punch biopsy of each ear was obtained and weighed. The difference between the left (control) and right (treated) ear weights were expressed as percent increase.

[2] = tested on: Carrageenin-Induced Rat Paw Edema; test: Carrageenin-induced rat paw edema; assay type: in vivo, Charles River male Sprague-Dawley rats; conditions: one hour prior to paw injection, paw volume three hours after carrageenin, dose not given
Protocol: Charles River male Sprague-Dawley rats weighing 90 to 100 grams were used. Inflammation of the left hind paw was induced by a 1% carrageenin solution (0.05 cc), injected into the plantar surface of the paw. The contralateral paw was injected with an equal volume of saline. Drugs were administered orally or i.p. (1 cc/100 grams) one hour prior to paw injection. Three hours following the carrageenin injection the difference in volume of the control and inflamed paw was measured. Each paw was immersed in a well of mercury and the volume of mercury displaced was recorded. Paws were uniformly dipped into the mercury up to the beginning of the hairline. A venous pressure transducer, coupled to a chart recorder, was employed to measure the small volumes of mercury displaced. Each group measurement consists of the average of four rats, each with three separate measurements.

[3] = fMLP stimulus in the presence of cytochalasin B, read-out: IMLP/MPO
[4] = ionomycin stimulus, read-out: ION/MPO
[5] = opsonized zymosan stimulus, read-out: OZ/MPO
[6] = 10 mg/Kg i.p., 30 minutes prior to mustard oil
[7] = 10 mg/Kg oral, 1 hour prior to mustard oil
[8] = 30 mg/Kg i.p., 30 minutes prior to mustard oil
[9] = 30 mg/Kg oral, 1 hour prior to mustard oil
[10] = 100 mg/Kg i.p., 30 minutes prior to mustard oil
[11] = 100 mg/Kg oral, 1 hour prior to mustard oil

| inhibition of release of myeloperoxidase (Rat PMNL) | Structure (SMILES) | inhibition at 1 µM (Rat PMNL; [3]) [%] | inhibition at 3 µM (Rat PMNL; [3]) [%] | inhibition at 10 µM (Rat PMNL; [3]) [%] | inhibition at 30 µM (Rat PMNL; [3]) [%] | inhibition at 100 µM (Rat PMNL; [3]) [%] | inhibition at 1 µM (Rat PMNL; [4]) [%] | inhibition at 3 µM (Rat PMNL; [4]) [%] | inhibition at 10 µM (Rat PMNL; [4]) [%] | inhibition at 30 µM (Rat PMNL; [4]) [%] | inhibition at 100 µM (Rat PMNL; [4]) [%] | inhibition at 1 µM (Rat PMNL; [5]) [%] | inhibition at 3 µM (Rat PMNL; [5]) [%] | inhibition at 10 µM (Rat PMNL; [5]) [%] | inhibition at 30 µM (Rat PMNL; [5]) [%] | inhibition at 100 µM (Rat PMNL; [5]) [%] | %Inhibition [1, 6] [%] | %Inhibition [1, 7] [%] | %Inhibition [1, 8] [%] | %Inhibition [1, 9] [%] | other results |
| --- | --- | --- | --- | --- | --- | --- | --- | --- | --- | --- | --- | --- | --- | --- | --- | --- | --- | --- | --- | --- | --- |
| dose dependent inhibition | O=C(C#Cc1ccncc1)c1ccccc1 [MDL 101,098, 1-Phenyl-3-(4-pyridinyl)-2-propyne-1-one] | 2.9 | 7.5 | 34.9 | 80.8 | 96.2 | -2.8 | 0 | 5.7 | 12.7 | 88.4 | 5.4 | 14.7 | 48.7 | 92.2 | 97.2 | 38.6 ± 13.1 | 38.5 ± 34.9 | 56.8 ± 6.4 | 6.4 ± 27.7 | %Inhibition [1, 10]: 68.2 ± 5.8%; %Inhibition [1, 11]: 43.9 ± 15.6%; %Inhibition ([2]; i.p.): 64.8%; %Inhibition ([2]; p.o.): 42.4% |
| dose dependent inhibition | CN(C)c1ccc(C(=O)C#Cc2ccncc2)cc1 [MDL 102,175, 1-(4-Dimethylaminophenyl)-3-(4-pyridinyl)-2-propyne-1-one] | 12.6 | 27.9 | 70.6 | 104 | 113 | 0.8 | 1.5 | 21.3 | 20.5 | 83.4 | 16.9 | 26.6 | 78.5 | 107 | 118 | 38.6 ± 13.1 | 38.5 ± 34.9 | 56.8 ± 6.4 | 6.4 ± 27.7 | %Inhibition [1, 10]: 68.2 ± 5.8%; %Inhibition [1, 11]: 43.9 ± 15.6%; %Inhibition ([2]; i.p.): 73.2%; %Inhibition ([2]; p.o.): 19.8% |
